These are literature values, as cited in patent US20110123575A1, “MODIFIED RELEASE NIACIN FORMULATIONS” (DR. REDDY'S LABORATORIES LTD., priority 2008, published 2011).

The conditions of this data set: white, crystalline powder.

With `O=C(O)c1cccnc1` [Niacin, 3-pyridinecarboxylic acid], the solubility in water result is listed as “very soluble in water”.
